Data published in patent publication US20220387457A1 (Qlaris Bio, Inc., priority 2020, published 2022).

Assays:
[1] = target: T1, human Kir6.2/SUR2B KATP channel (Homo sapiens, UniProt O60706); experiment: FLIPR membrane potential assay in HEK-Kir6.2/SUR2B cells; assay type: cell-based; settings: glibenclamide 10 μM
T1 construct: expressed in transfected cells
Procedure: The ability of CKLP1 and the active moiety of CKLP1, leveromakalim, to pharmacologically modulate the function of the human ATP-sensitive potassium channel comprised of Kir6.2 (encoded by the human gene KCNJ11) coupled to the sulfonylurea receptor SUR2B (encoded by the human gene ABCC9) was studied.
Compounds were dissolved up to 10 mM stock solution in DMSO. Ten-point concentration response curves were generated at 100× concentration in 100% DMSO. Compound source plates were made by serially diluting 10 mM compound stocks in DMSO to generate a progressive semilog dilution schema. Dose response stock plate (10 μL) were then transferred into assay plates containing 90 μL of assay buffer, generating 10× working concentrations. Final assay test concentration ranges of 100 μM to 0.003 μM with a final DMSO concentration of 1.0%.
Human embryonic kidney (HEK) cells stably expressing human Kir6.2/SUR2B KATP channel subunits were plated onto 96 well, black poly-d-lysine (PDL)-coated microplates and maintained in growth media the day prior to use for experiments. Media was removed from the plates and 90 μL of 1× stock of the membrane potential sensitive fluorescent dye FMP-Blue resuspended in assay buffer (EBSS—in mM: NaCl 145, KCl 2, Glucose 5, CaCl2) 1.8, MgCl2 0.8, HEPES 10, pH 7.4 with NaOH, 290-300 mOSm) was added to the cells. Cells were incubated at room temperature, protected from light, for 45-60 minutes. After the incubation period, cell, test compound and glibenclamide plates were loaded onto the fluorescence plate reader (FLIPR-TETRA™) and the scanning initiated. The FLIPR measured a 10 second baseline and then added 10 μL of 10× the final desired concentration of test agent. Changes in fluorescence were monitored for an additional 5 minutes. After the 5-minute compound incubation, 10 μL of the receptor inhibitor glibenclamide was added to the cell plate (10 uM final glibenclamide concentration). Changes in fluorescence was then monitored for an additional 5 minutes.
Compound modulation of Kir6.2/SUR2B KATP channel mediated changes in cellular membrane potential was determined as follows. After the administration of compound, FMP fluorescence was monitored for a 5-minute period. The following parameters were recorded and exported from the FLIPR: the average relative fluorescence response (RFU) of 5 images taken at the 5-minute point in the assay with the average background EBSS buffer response subtracted. […] Test agent effect was calculated as % activation using the following formula: […]
Curve fits were performed in GraphPad Prism graphing software using a 4-parameter, variable slope fit equation.

[2] = cited from earlier work
single KATP channels = settings: in the presence of ATP; Brayden et al. 1991; cited from earlier work
[3] = test system: α-SMA, CD31, endothelin-I, fibronectin, VE-cadherin, phospho-eNOS and total eNOS; experiment: Protein expression (western blot, immunocytochemistry) in 3D HTM/SC constructs; assay type: cell-based, human; settings: levcromakalim 1, 10 or 100 μM, Y-27632 10 μM
Procedure: Bioengineered 3D conventional outflow tract constructs using 4 donors (ages 47-91) were treated with […] (5 ng/mL) for 6 days. […] Protein expression of α-smooth muscle actin (α-SMA), CD31, endothelin-I, fibronectin, VE-cadherin, phospho-eNOS and total eNOS was analyzed via western blot. Cellular expression of α-SMA, fibronectin, phospho-eNOS and total eNOS was determined by immunocytochemistry and confocal microscopy. Statistical significance was determined by one-way ANOVA with a Tukey's multiple comparisons test, or by two-way ANOVA.

T1 sequence (O60706 1-1549 isoform O60706-2): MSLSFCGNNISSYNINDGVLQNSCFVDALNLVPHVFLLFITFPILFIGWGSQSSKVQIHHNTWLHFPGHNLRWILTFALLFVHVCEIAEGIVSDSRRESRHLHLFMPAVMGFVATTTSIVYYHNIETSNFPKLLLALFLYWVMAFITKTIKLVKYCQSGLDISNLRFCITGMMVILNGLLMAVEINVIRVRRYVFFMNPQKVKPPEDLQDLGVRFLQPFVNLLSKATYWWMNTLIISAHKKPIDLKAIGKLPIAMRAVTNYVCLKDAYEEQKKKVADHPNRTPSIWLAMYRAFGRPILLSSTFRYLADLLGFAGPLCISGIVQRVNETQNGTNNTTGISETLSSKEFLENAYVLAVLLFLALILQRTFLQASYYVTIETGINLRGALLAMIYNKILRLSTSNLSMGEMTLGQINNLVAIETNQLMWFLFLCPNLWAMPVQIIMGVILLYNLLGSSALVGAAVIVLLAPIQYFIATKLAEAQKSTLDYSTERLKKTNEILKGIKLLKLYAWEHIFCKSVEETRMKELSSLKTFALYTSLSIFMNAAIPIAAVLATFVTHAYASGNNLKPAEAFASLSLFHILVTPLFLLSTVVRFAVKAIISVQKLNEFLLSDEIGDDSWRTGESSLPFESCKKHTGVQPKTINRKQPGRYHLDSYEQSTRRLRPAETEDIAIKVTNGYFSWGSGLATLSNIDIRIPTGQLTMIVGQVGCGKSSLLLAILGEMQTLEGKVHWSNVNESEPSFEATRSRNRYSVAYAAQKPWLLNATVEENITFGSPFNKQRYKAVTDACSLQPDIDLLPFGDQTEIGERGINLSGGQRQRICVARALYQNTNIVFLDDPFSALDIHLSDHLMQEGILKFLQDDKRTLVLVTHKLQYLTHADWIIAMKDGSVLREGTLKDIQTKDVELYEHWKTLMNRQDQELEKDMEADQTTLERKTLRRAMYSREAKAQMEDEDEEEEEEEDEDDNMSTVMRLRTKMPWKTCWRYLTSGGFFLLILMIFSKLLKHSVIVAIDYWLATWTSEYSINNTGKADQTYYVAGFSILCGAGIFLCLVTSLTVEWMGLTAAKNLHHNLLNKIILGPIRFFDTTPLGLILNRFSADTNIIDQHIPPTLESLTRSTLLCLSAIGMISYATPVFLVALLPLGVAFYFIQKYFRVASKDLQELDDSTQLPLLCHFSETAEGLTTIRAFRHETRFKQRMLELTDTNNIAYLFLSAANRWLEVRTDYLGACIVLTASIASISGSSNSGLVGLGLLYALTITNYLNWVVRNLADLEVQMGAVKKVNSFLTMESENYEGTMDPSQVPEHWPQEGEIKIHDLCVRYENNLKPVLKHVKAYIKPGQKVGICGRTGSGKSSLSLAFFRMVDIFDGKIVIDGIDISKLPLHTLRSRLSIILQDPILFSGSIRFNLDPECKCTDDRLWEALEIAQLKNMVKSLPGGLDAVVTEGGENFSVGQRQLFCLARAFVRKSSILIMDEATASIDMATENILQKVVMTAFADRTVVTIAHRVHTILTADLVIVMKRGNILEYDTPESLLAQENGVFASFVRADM
T1 sequence (Q14654 whole entry partner): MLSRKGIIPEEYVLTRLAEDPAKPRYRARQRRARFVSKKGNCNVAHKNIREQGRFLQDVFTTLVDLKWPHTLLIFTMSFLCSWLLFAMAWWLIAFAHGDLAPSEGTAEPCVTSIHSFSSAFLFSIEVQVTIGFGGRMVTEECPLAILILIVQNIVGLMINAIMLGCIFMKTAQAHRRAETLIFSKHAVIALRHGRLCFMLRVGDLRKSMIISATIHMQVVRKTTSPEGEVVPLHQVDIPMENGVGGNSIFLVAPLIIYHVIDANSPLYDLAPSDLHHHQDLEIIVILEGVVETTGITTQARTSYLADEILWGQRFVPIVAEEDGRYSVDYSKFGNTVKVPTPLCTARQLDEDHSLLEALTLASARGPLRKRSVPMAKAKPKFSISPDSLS

hyperpolarization reversed by coadministration of glibenclamide [1] | Structure (SMILES) | solubility in water [2] | increase of open-state probability (Popen) of single KATP channels (single KATP channels) | expression of the cell adhesion proteins CD31 and VE-Cadherin [3] | expression of the cell adhesion proteins CD31 and VE-Cadherin ([3]; listed as Y27632)
reversed | CC1(C)Oc2ccc(C#N)cc2C(N2CCCC2=O)C1O (stereo not drawn) [Cromakalim, cromakalim] | substantially insoluble in water | more than 9 fold | – | –
reversed | CC(N/C(=N\C#N)Nc1ccncc1)C(C)(C)C (stereo not drawn) [Pinacidil, pinacidil, reference compound] | – | – | – | –
– | C[C@@H](N)[C@H]1CC[C@H](C(=O)Nc2ccncc2)CC1 [Y-27632] | – | – | significantly decreased | decreased expression
